What all share (assay type): binding
For one experiment, the target named is T1, P2RY6 (Homo sapiens, UniProt Q15077).
T1 construct: purchased Promega (in-house HiBiT-GPCR construct library, NanoBRET)
Put plainly: NanoBRET screen HiBiT-P2RY6 in HEK293. The procedure: (§1) Each tracer candidate was screened across the entire library of HiBiT-GPCR constructs using NanoBRET as the detection modality. As depicted in Figure 4A, the specificity of interactions was evaluated through decrease in BRET due to competitive displacement of a bound tracer by excess parental compound. Each tracer was analyzed for binding to each HiBiT-GPCR fusion in the absence and in the presence of competing parental compound. Briefly, HEK293 cells were transfected with HiBiT-GPCR constructs diluted into promoterless DNA to reduce expression and maximize translocation to the cell surface. Each tracer candidate was then screened at concentrations of 1 μM and 0.1 μM across cells expressing these fusions. Cells were treated for 1.5 h with tracer either alone or in the presence of 20 μM competing parental compound (i.e., control). BRET was measured upon addition of purified LgBiT and subsequent complementation with HiBiT genetically fused to a GPCR. The specificity of interactions was assessed through a decrease in BRET signal due to competitive displacement of the bound tracer. To further gauge the robustness of these interactions, the fold response over the control (i.e., BRETtracer/BRETcontrol) was calculated. We chose a 1.5-fold response, which translates to ≥7-fold signal over noise as the minimal threshold required to score an interaction as positive. […]. Below we highlight the screening results obtained for our exemplary fluorescent tracers based on Clozapine, Amitriptyline and AZD1283.
(§2) HiBiT-GPCR DNA constructs were diluted in 10 mM Tris pH 8 to a final concentration of 0.01 μg/μL, arrayed in 96-well plates and stored at −20 °C. For transfection, HEK293 cells were suspended in Opti-MEM (without phenol red) supplemented with 2% fetal bovine serum (Seradigm) and 100 units/mL penicillin–streptomycin (Gibco) at a final concentration of 220,000 cells/mL and dispensed into white 96-well plates at 90 μL/well. Subsequent transfections and screens were carried using an Agilent Bravo Automated Liquid Handling Platform. First, the 96-well HiBiT DNA arrays were diluted 25-fold in Opti-MEM (without serum or phenol red) to a final concentration of 0.0004 μg/μL and 20 μL of the diluted DNAs were transferred into new 96-well plates. Next, promoterless carrier DNA (1 μg/μL) was diluted 25-fold (0.04 μg/μL) and then dispensed into the diluted arrays at 20 μL/well. Following brief mixing, Viafect transfection reagent (Promega) diluted 16-fold into Opti-MEM was dispensed into the plates at 40 μL/well. After mixing by pipetting, plates were incubated for 10 min on the pipetting station deck. The DNA-transfection reagent complexes were then added to plates containing cells. To facilitate the screen, 10 μL of DNA-transfection reagent complexes were added in duplicates to the top 4 and bottom 4 rows, resulting in two identical 48-well arrays per plate. Plates with transfected cells were incubated for 18–20 h at 37 °C/5% CO2. A screen of each tracer across the entire library using two different concentrations requires duplicate plates of transfected cells. Depending on the number of tracers being screened, transfections can be scaled up using the same ratios. The next day, for each tracer, four 20× screening solutions in tracer dilution buffer (Promega) were prepared: two duplicates at final concentration of 20 μM and two duplicates at a final concentration of 2 μM. A competing unmodified compound was added to one of each duplicate at a final concentration of 400 μM. The four resulting solutions were diluted 4-fold in Opti-MEM without serum or phenol red to generate 5× solutions (5 µM and 0.5 µM tracer +/− 100 μM competing compound). To screen the library, a BioTek MultiFlo FX liquid dispenser was used to dispense 22.5 µL of tracer solution to the top 4 rows and 22.5 µL tracer + competing compound solution to the 4 bottom rows. Plates were briefly mixed on an orbital shaker and incubated for 1.5 h at room temperature. […]

The target of a further experiment is T2, MC3R (Homo sapiens, UniProt P41968).
T2 construct: purchased Promega (in-house HiBiT-GPCR construct library, NanoBRET)
The experiment can be described thus: NanoBRET screen HiBiT-MC3R in HEK293. The procedure:
as §1, §2

The next experiment deals with T3, FPR3 (Homo sapiens, UniProt P25089).
T3 construct: purchased Promega (in-house HiBiT-GPCR construct library, NanoBRET)
T3 sequence (P25089 1-353): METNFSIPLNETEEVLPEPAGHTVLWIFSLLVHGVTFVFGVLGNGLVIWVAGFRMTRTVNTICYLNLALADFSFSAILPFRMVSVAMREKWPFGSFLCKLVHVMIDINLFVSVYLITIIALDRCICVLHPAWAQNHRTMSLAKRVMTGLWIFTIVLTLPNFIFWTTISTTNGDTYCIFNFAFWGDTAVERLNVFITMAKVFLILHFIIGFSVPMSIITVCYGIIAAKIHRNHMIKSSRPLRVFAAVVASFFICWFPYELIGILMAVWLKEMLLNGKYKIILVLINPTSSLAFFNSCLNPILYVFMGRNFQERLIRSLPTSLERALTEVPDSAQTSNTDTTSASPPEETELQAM
The experiment can be described thus: NanoBRET screen HiBiT-FPR3 in HEK293. On the procedure: as §1, §2

The target of another experiment is T4, NPY2R (Homo sapiens, UniProt P49146).
T4 construct: purchased Promega (in-house HiBiT-GPCR construct library, NanoBRET)
T4 sequence (P49146 1-381): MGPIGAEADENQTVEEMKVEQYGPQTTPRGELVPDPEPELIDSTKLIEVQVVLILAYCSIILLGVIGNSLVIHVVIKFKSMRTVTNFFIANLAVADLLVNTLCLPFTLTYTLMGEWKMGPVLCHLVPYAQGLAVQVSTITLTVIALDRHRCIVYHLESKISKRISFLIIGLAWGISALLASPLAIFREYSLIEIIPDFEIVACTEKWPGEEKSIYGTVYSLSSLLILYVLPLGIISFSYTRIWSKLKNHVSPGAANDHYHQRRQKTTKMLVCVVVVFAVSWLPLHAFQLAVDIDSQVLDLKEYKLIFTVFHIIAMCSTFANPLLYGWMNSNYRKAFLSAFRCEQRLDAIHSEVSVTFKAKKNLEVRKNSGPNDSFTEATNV
Put plainly: NanoBRET screen HiBiT-NPY2R in HEK293. The procedure:
as §1, §2

The next experiment deals with T5, AGTR1 (Homo sapiens, UniProt P30556).
T5 construct: purchased Promega (in-house HiBiT-GPCR construct library, NanoBRET)
T5 sequence (P30556 1-359): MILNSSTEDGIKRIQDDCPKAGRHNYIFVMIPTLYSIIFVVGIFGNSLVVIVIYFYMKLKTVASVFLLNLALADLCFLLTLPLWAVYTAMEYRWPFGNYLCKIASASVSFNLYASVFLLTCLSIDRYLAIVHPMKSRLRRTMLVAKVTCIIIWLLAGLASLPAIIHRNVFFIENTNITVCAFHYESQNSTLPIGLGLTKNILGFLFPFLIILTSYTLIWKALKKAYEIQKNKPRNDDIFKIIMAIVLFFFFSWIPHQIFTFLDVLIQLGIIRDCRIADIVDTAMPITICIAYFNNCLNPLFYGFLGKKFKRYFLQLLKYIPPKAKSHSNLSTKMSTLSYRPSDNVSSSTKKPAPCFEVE
Put plainly: NanoBRET screen HiBiT-AGTR1 in HEK293. The procedure: as §1, §2

For the next experiment, the target named is T6, OXER1 (Homo sapiens, UniProt Q8TDS5).
T6 construct: purchased Promega (in-house HiBiT-GPCR construct library, NanoBRET)
The experiment can be described thus: NanoBRET screen HiBiT-OXER1 in HEK293. The procedure: as §1, §2

T2 sequence (P41968 whole entry): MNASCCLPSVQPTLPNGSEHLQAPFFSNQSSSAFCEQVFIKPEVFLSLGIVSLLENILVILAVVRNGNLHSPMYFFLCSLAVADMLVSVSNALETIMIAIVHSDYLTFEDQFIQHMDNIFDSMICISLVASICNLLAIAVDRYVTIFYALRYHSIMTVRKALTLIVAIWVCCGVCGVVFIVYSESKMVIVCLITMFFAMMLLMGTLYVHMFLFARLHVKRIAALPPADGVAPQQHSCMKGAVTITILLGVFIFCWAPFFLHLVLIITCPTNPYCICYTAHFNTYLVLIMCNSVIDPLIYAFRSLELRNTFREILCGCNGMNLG
T6 sequence (Q8TDS5 whole entry): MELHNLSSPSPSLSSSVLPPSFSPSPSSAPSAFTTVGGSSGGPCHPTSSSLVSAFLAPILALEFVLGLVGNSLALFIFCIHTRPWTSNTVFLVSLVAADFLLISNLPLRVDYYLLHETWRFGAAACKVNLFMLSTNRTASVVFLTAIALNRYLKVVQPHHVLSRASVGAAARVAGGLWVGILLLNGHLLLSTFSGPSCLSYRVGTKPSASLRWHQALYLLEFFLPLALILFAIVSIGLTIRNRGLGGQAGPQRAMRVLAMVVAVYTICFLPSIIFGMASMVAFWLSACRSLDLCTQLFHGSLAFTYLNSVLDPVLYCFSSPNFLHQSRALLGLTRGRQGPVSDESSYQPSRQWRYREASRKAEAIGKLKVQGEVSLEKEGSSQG
T1 sequence (Q15077 whole entry): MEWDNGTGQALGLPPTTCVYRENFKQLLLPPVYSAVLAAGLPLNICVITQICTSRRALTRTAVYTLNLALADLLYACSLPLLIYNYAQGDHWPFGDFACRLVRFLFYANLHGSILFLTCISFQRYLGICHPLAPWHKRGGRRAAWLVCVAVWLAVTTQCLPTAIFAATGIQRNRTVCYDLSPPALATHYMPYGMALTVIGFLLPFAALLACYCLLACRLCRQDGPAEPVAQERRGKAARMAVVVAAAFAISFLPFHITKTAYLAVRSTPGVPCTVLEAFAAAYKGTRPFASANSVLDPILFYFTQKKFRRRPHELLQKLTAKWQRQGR

Take `O=C(CCc1ccc2n1[B-](F)(F)[N+]1=C(c3ccc[nH]3)C=CC1=C2)NCc1ccc(C(=O)NCCOCCC(=O)N[C@@H]2CC[C@@]3(O)[C@H]4Cc5ccc(O)c6c5[C@@]3(CCN4CC3CC3)[C@H]2O6)cc1` [Naltrexone-3-NB590]: the “NanoBRET Fold Response” value amounted to 0.84 on P2RY6 (P2RY6, tracer 0.1μM); 0.81 on P2RY6 (P2RY6, tracer 1μM); 0.90 on MC3R (MC3R, tracer 0.1μM); 1.11 on MC3R (MC3R, tracer 1μM); 0.82 on FPR3 (FPR3, tracer 0.1μM); 0.92 at FPR3 (FPR3, tracer 1μM). Besides, the “NanoBRET Fold Response” value worked out at 1.05 on NPY2R (NPY2R, tracer 0.1μM); 0.96 on NPY2R (NPY2R, tracer 1μM); 1.07 at AGTR1 (AGTR1, tracer 0.1μM); 0.93 at AGTR1 (AGTR1, tracer 1μM); 0.78 at OXER1 (OXER1, tracer 0.1μM); 0.74 on OXER1 (OXER1, tracer 1μM).

With `CCOC(=O)c1cc(C#N)c(N2CCC(C(=O)NS(=O)(=O)Cc3ccccc3/C=C/C(=O)NCCNC(=O)CCc3ccc4n3[B-](F)(F)[N+]3=C(c5ccc[nH]5)C=CC3=C4)CC2)nc1C` [AZD1283-1-NB590], the “NanoBRET Fold Response” value at P2RY6 (P2RY6, 0.1μM) was 1.18; on P2RY6 (P2RY6, 1μM), 1.04; on MC3R (MC3R, 0.1μM) it was 1.00; at MC3R (MC3R, 1μM), 0.98; on FPR3 (FPR3, 0.1μM), 1.08; at FPR3 (FPR3, 1μM), 1.06. For the same compound, the “NanoBRET Fold Response” value at NPY2R (NPY2R, 0.1μM) was 1.04; at NPY2R (NPY2R, 1μM) it was 1.07; at AGTR1 (AGTR1, 0.1μM) it was 1.01; on AGTR1 (AGTR1, 1μM), 1.05; at OXER1 (OXER1, 0.1μM), 0.50; at OXER1 (OXER1, 1μM) it was 1.03.

Take `COc1ccc2[nH]c(-c3ccc(CNC(=O)CCOCCOCCOCCOCCNC(=O)CCc4ccc5n4[B-](F)(F)[N+]4=C(c6ccc[nH]6)C=CC4=C5)cc3)c(CCNC(C)=O)c2n1` [AzomelatoninICO9-2-NB590]: the “NanoBRET Fold Response” value on P2RY6 (0.1μM tracer) is recorded as 1.40; on P2RY6 (1μM tracer) it was 1.09; at MC3R (0.1μM tracer) it was 1.02; at MC3R (1μM tracer), 0.72; at FPR3 (0.1μM tracer), 1.46; on FPR3 (1μM tracer) it was 1.02. In addition, the “NanoBRET Fold Response” value on NPY2R (0.1μM tracer) was determined as 0.99; at NPY2R (1μM tracer), 0.88; at AGTR1 (0.1μM tracer) it was 0.91; at AGTR1 (1μM tracer), 0.94; on OXER1 (0.1μM tracer) it was 1.11; at OXER1 (1μM tracer), 0.83.

In the case of `CC(C)N(CC[C@H](c1ccccc1)c1cc(CCNC(=O)CCOCCOCCOCCOCCNC(=O)CCc2ccc3n2[B-](F)(F)[N+]2=C(c4ccc[nH]4)C=CC2=C3)ccc1O)C(C)C` [Tolterodine-2-NB590], the “NanoBRET Fold Response” value at P2RY6 (P2RY6, tracer 0.1μM) is reported as 1.06; on P2RY6 (P2RY6, tracer 1μM), 0.98; on MC3R (MC3R, tracer 0.1μM) it was 0.82; on MC3R (MC3R, tracer 1μM), 1.04; on FPR3 (FPR3, tracer 0.1μM), 1.60; on FPR3 (FPR3, tracer 1μM), 0.92. The “NanoBRET Fold Response” value at NPY2R (NPY2R, tracer 0.1μM) amounted to 1.01; on NPY2R (NPY2R, tracer 1μM), 0.93; on AGTR1 (AGTR1, tracer 0.1μM), 1.12; at AGTR1 (AGTR1, tracer 1μM) it was 1.00; at OXER1 (OXER1, tracer 0.1μM), 0.73; on OXER1 (OXER1, tracer 1μM), 1.09.

Take `CN1CCN(C2=Nc3cc(Cl)ccc3N(CC(=O)NCCOCCOCCOCCOCCNC(=O)CCc3ccc4n3[B-](F)(F)[N+]3=C(c5ccc[nH]5)C=CC3=C4)c3ccccc32)CC1` [Clozapine-c-2-NB590]: the “NanoBRET Fold Response” value turned out to be 0.97 on P2RY6 (P2RY6, 0.1μM tracer); 0.98 on P2RY6 (P2RY6, 1μM tracer); 1.02 on MC3R (MC3R, 0.1μM tracer); 1.03 at MC3R (MC3R, 1μM tracer); 1.08 on FPR3 (FPR3, 0.1μM tracer); 1.01 on FPR3 (FPR3, 1μM tracer). Further, the “NanoBRET Fold Response” value at NPY2R (NPY2R, 0.1μM tracer) was 1.01; at NPY2R (NPY2R, 1μM tracer) it was 0.99; on AGTR1 (AGTR1, 0.1μM tracer) it was 0.98; at AGTR1 (AGTR1, 1μM tracer), 0.93; at OXER1 (OXER1, 0.1μM tracer) it was 1.00; on OXER1 (OXER1, 1μM tracer) it was 0.94.

On to `N#CN=C(NCCCOc1cccc(CN2CCCCC2)c1)NCCNC(=O)CCOCCOCCOCCOCCNC(=O)CCc1ccc2n1[B-](F)(F)[N+]1=C(c3ccc[nH]3)C=CC1=C2` [Aminopotentidine-2-NB590], for which the “NanoBRET Fold Response” value on P2RY6 (P2RY6, tracer 0.1μM) came out at 1.12; on P2RY6 (P2RY6, tracer 1μM) it was 0.86; at MC3R (MC3R, tracer 0.1μM), 1.00; at MC3R (MC3R, tracer 1μM), 1.01; on FPR3 (FPR3, tracer 0.1μM), 1.21; at FPR3 (FPR3, tracer 1μM), 1.13. Further, the “NanoBRET Fold Response” value came to 0.98 at NPY2R (NPY2R, tracer 0.1μM); 1.00 on NPY2R (NPY2R, tracer 1μM); 1.00 on AGTR1 (AGTR1, tracer 0.1μM); 0.96 on AGTR1 (AGTR1, tracer 1μM); 1.10 at OXER1 (OXER1, tracer 0.1μM); 1.01 at OXER1 (OXER1, tracer 1μM).

For the origin of these results see publication PMC8151276, “An Integrated Approach toward NanoBRET Tracers for Analysis of GPCR Ligand Engagement” (Molecules, 2021).
